Results: ChEMBL document CHEMBL1136456, “Synthesis and biological evaluation of benzazepine oxazolidinone antibacterials” (2003)
Values after ≈ are worked out from the molar mass of the structure shown.

Experiments:
Format in all cases: functional
Enterococcus faecalis = assay: Antibacterial activity against Enterococcus faecalis UC9217 (E. f)
Haemophilus influenzae = assay: Antibacterial activity against Haemophilus influenzae UC30063 (Haemophilus influenzae)
Staphylococcus aureus [1] = assay: Antibacterial activity against Methicillin-suceptible Staphylococcus aureus UC9218
Streptococcus pneumoniae = assay: Antibacterial activity against Streptococcus pneumoniae UC9912 (S.p)
[2] = tested on: Staphylococcus epidermidis; assay: Antibacterial activity against Methicillin-resistant Staphylococcus epidermidis UC12084 (S. e)
Moraxella catarrhalis = assay: Antibacterial activity against Moraxella catarrhalis UC30610 (M. cat)
Mus musculus = assay: Dose (administered orally) required to protect the Staphylococcus aureus infected mice was determined; details: po
Staphylococcus aureus [3] = assay: Antibacterial activity against Methicillin-resistant Staphylococcus aureus UC6685 (S. a.)

CC(=O)NC[C@H]1CN(c2ccc3c(c2)CCCN(C(C)=O)C3)C(=O)O1
MIC (Enterococcus faecalis): 8 µg/mL (≈ 23.2 µM) | MIC (Haemophilus influenzae): > 64 µg/mL | MIC (Staphylococcus aureus [1]): 8 µg/mL (≈ 23.2 µM) | MIC (Streptococcus pneumoniae): 2 µg/mL (≈ 5.79 µM) | MIC [2]: 4 µg/mL (≈ 11.6 µM)

CC(=O)NC[C@H]1CN(c2ccc3c(c2)CCCN(C=O)C3)C(=O)O1
MIC (Enterococcus faecalis): 2 µg/mL (≈ 6.04 µM) | MIC (Haemophilus influenzae): 32 µg/mL (≈ 96.6 µM) | MIC (Moraxella catarrhalis): 4 µg/mL (≈ 12.1 µM) | ED50 (Mus musculus): 8.1 mg/kg/day | MIC (Staphylococcus aureus [3]): 1 µg/mL (≈ 3.02 µM) | MIC (Staphylococcus aureus [1]): 1 µg/mL (≈ 3.02 µM) | MIC (Streptococcus pneumoniae): 1 µg/mL (≈ 3.02 µM) | MIC [2]: 2 µg/mL (≈ 6.04 µM)

CC(=O)NC[C@H]1CN(c2ccc3c(c2)CCN(S(C)(=O)=O)CC3)C(=O)O1
MIC (Enterococcus faecalis): 32 µg/mL (≈ 83.9 µM) | MIC (Haemophilus influenzae): 32 µg/mL (≈ 83.9 µM) | MIC (Moraxella catarrhalis): > 64 µg/mL | MIC (Staphylococcus aureus [1]): 16 µg/mL (≈ 41.9 µM) | MIC (Streptococcus pneumoniae): 8 µg/mL (≈ 21 µM) | MIC [2]: 16 µg/mL (≈ 41.9 µM)

CC(=O)NC[C@H]1CN(c2ccc3c(c2)CCN(C(C)=O)CC3)C(=O)O1
MIC (Enterococcus faecalis): 2 µg/mL (≈ 5.79 µM) | MIC (Haemophilus influenzae): 64 µg/mL (≈ 185 µM) | MIC (Staphylococcus aureus [1]): 4 µg/mL (≈ 11.6 µM) | MIC (Streptococcus pneumoniae): 1 µg/mL (≈ 2.9 µM) | MIC [2]: 1 µg/mL (≈ 2.9 µM)

CC(=O)NC[C@H]1CN(c2ccc3c(c2)CCCCN3)C(=O)O1
MIC (Enterococcus faecalis): 64 µg/mL (≈ 211 µM) | MIC (Haemophilus influenzae): > 64 µg/mL | MIC (Moraxella catarrhalis): > 64 µg/mL | MIC (Staphylococcus aureus [3]): 32 µg/mL (≈ 105 µM) | MIC (Staphylococcus aureus [1]): 64 µg/mL (≈ 211 µM) | MIC (Streptococcus pneumoniae): 16 µg/mL (≈ 52.7 µM) | MIC [2]: 16 µg/mL (≈ 52.7 µM)

CC(=O)NC[C@H]1CN(c2ccc3c(c2)CCCN(C(=O)NC(C)C)C3)C(=O)O1
MIC (Enterococcus faecalis): 32 µg/mL (≈ 82.4 µM) | MIC (Haemophilus influenzae): > 64 µg/mL | MIC (Staphylococcus aureus [1]): 64 µg/mL (≈ 165 µM) | MIC (Streptococcus pneumoniae): 8 µg/mL (≈ 20.6 µM) | MIC [2]: 32 µg/mL (≈ 82.4 µM)

CC(=O)NC[C@H]1CN(c2ccc3c(c2)CCNCC3)C(=O)O1
MIC (Enterococcus faecalis): 32 µg/mL (≈ 105 µM) | MIC (Haemophilus influenzae): > 64 µg/mL | MIC (Moraxella catarrhalis): > 64 µg/mL | MIC (Staphylococcus aureus [3]): 64 µg/mL (≈ 211 µM) | MIC (Staphylococcus aureus [1]): 32 µg/mL (≈ 105 µM) | MIC (Streptococcus pneumoniae): 8 µg/mL (≈ 26.4 µM) | MIC [2]: 8 µg/mL (≈ 26.4 µM)

CC(=O)NC[C@H]1CN(c2ccc3c(c2)CCCCN3C(=O)CO)C(=O)O1
MIC (Enterococcus faecalis): 64 µg/mL (≈ 177 µM) | MIC (Haemophilus influenzae): > 64 µg/mL | MIC (Moraxella catarrhalis): > 64 µg/mL | MIC (Staphylococcus aureus [3]): 32 µg/mL (≈ 88.5 µM) | MIC (Staphylococcus aureus [1]): 64 µg/mL (≈ 177 µM) | MIC (Streptococcus pneumoniae): 8 µg/mL (≈ 22.1 µM) | MIC [2]: 8 µg/mL (≈ 22.1 µM)

CC(=O)NC[C@H]1CN(c2ccc3c(c2)CCCCN3C(=O)OCc2ccccc2)C(=O)O1
MIC (Enterococcus faecalis): > 64 µg/mL | MIC (Haemophilus influenzae): > 64 µg/mL | MIC (Moraxella catarrhalis): > 64 µg/mL | MIC (Staphylococcus aureus [1]): > 64 µg/mL | MIC (Streptococcus pneumoniae): > 64 µg/mL | MIC [2]: > 64 µg/mL

CC(=O)NC[C@H]1CN(c2ccc3c(c2)CCCN(C(=O)OCc2ccccc2)C3)C(=O)O1
MIC (Enterococcus faecalis): 32 µg/mL (≈ 73.1 µM) | MIC (Haemophilus influenzae): > 64 µg/mL | MIC (Staphylococcus aureus [1]): 16 µg/mL (≈ 36.6 µM) | MIC (Streptococcus pneumoniae): 8 µg/mL (≈ 18.3 µM) | MIC [2]: 16 µg/mL (≈ 36.6 µM)

COC(=O)N1CCCc2cc(N3C[C@H](CNC(C)=O)OC3=O)ccc2C1
MIC (Enterococcus faecalis): 4 µg/mL (≈ 11.1 µM) | MIC (Haemophilus influenzae): > 64 µg/mL | MIC (Staphylococcus aureus [1]): 8 µg/mL (≈ 22.1 µM) | MIC (Streptococcus pneumoniae): 2 µg/mL (≈ 5.53 µM) | MIC [2]: 2 µg/mL (≈ 5.53 µM)

CC(=O)NC[C@H]1CN(c2ccc3c(c2)CCCN(C(=O)CO)C3)C(=O)O1
MIC (Enterococcus faecalis): 4 µg/mL (≈ 11.1 µM) | MIC (Haemophilus influenzae): 64 µg/mL (≈ 177 µM) | MIC (Moraxella catarrhalis): 16 µg/mL (≈ 44.3 µM) | MIC (Staphylococcus aureus [3]): 4 µg/mL (≈ 11.1 µM) | MIC (Staphylococcus aureus [1]): 4 µg/mL (≈ 11.1 µM) | MIC (Streptococcus pneumoniae): 1 µg/mL (≈ 2.77 µM) | MIC [2]: 1 µg/mL (≈ 2.77 µM)

CC(=O)NC[C@H]1CN(c2ccc3c(c2)CCCCN3C=O)C(=O)O1
MIC (Enterococcus faecalis): 2 µg/mL (≈ 6.04 µM) | MIC (Haemophilus influenzae): 16 µg/mL (≈ 48.3 µM) | MIC (Moraxella catarrhalis): 4 µg/mL (≈ 12.1 µM) | MIC (Staphylococcus aureus [3]): 2 µg/mL (≈ 6.04 µM) | MIC (Staphylococcus aureus [1]): 2 µg/mL (≈ 6.04 µM) | MIC (Streptococcus pneumoniae): < 0.05 µg/mL | MIC [2]: < 0.05 µg/mL

CC(=O)NC[C@H]1CN(c2ccc3c(c2)CCN(C(=O)Cc2ccccc2)CC3)C(=O)O1
MIC (Enterococcus faecalis): 2 µg/mL (≈ 4.74 µM) | MIC (Haemophilus influenzae): > 64 µg/mL | MIC (Staphylococcus aureus [1]): 4 µg/mL (≈ 9.49 µM) | MIC (Streptococcus pneumoniae): 1 µg/mL (≈ 2.37 µM) | MIC [2]: 1 µg/mL (≈ 2.37 µM)

CC(=O)NC[C@H]1CN(c2ccc3c(c2)NCCCC3)C(=O)O1
MIC (Enterococcus faecalis): 32 µg/mL (≈ 105 µM) | MIC (Haemophilus influenzae): > 64 µg/mL | MIC (Moraxella catarrhalis): > 64 µg/mL | MIC (Staphylococcus aureus [3]): 16 µg/mL (≈ 52.7 µM) | MIC (Staphylococcus aureus [1]): 32 µg/mL (≈ 105 µM) | MIC (Streptococcus pneumoniae): 8 µg/mL (≈ 26.4 µM) | MIC [2]: 8 µg/mL (≈ 26.4 µM)

CC(=O)NC[C@H]1CN(c2ccc3c(c2)CCN(C(=O)CO)CC3)C(=O)O1
MIC (Enterococcus faecalis): 4 µg/mL (≈ 11.1 µM) | MIC (Haemophilus influenzae): 32 µg/mL (≈ 88.5 µM) | MIC (Moraxella catarrhalis): 8 µg/mL (≈ 22.1 µM) | ED50 (Mus musculus): 8.5 mg/kg/day | MIC (Staphylococcus aureus [3]): 2 µg/mL (≈ 5.53 µM) | MIC (Staphylococcus aureus [1]): 2 µg/mL (≈ 5.53 µM) | MIC (Streptococcus pneumoniae): < 0.05 µg/mL | MIC [2]: 1 µg/mL (≈ 2.77 µM)

CC(=O)NC[C@H]1CN(c2ccc3c(c2)CCN(C(=O)OCc2ccccc2)CC3)C(=O)O1
MIC (Enterococcus faecalis): 4 µg/mL (≈ 9.14 µM) | MIC (Haemophilus influenzae): > 64 µg/mL | MIC (Moraxella catarrhalis): 16 µg/mL (≈ 36.6 µM) | MIC (Staphylococcus aureus [3]): 2 µg/mL (≈ 4.57 µM) | MIC (Staphylococcus aureus [1]): 4 µg/mL (≈ 9.14 µM) | MIC (Streptococcus pneumoniae): < 0.05 µg/mL | MIC [2]: 1 µg/mL (≈ 2.29 µM)

CC(=O)NC[C@H]1CN(c2ccc3c(c2)CCN(C(=O)c2ccccc2)CC3)C(=O)O1
MIC (Enterococcus faecalis): 2 µg/mL (≈ 4.91 µM) | MIC (Haemophilus influenzae): > 64 µg/mL | MIC (Staphylococcus aureus [1]): 8 µg/mL (≈ 19.6 µM) | MIC (Streptococcus pneumoniae): 1 µg/mL (≈ 2.45 µM) | MIC [2]: 1 µg/mL (≈ 2.45 µM)

COC(=O)N1CCc2ccc(N3C[C@H](CNC(C)=O)OC3=O)cc2CC1
MIC (Enterococcus faecalis): 2 µg/mL (≈ 5.53 µM) | MIC (Haemophilus influenzae): > 64 µg/mL | MIC (Staphylococcus aureus [1]): 4 µg/mL (≈ 11.1 µM) | MIC (Streptococcus pneumoniae): 1 µg/mL (≈ 2.77 µM) | MIC [2]: 1 µg/mL (≈ 2.77 µM)

CC(=O)NC[C@H]1CN(c2ccc3c(c2)CCCNC3)C(=O)O1
MIC (Enterococcus faecalis): > 64 µg/mL | MIC (Haemophilus influenzae): > 64 µg/mL | MIC (Moraxella catarrhalis): > 64 µg/mL | MIC (Staphylococcus aureus [1]): > 64 µg/mL | MIC (Streptococcus pneumoniae): 8 µg/mL (≈ 26.4 µM) | MIC [2]: 32 µg/mL (≈ 105 µM)

CC(=O)NC[C@H]1CN(c2ccc3c(c2)N(C=O)CCCC3)C(=O)O1
MIC (Enterococcus faecalis): > 64 µg/mL | MIC (Haemophilus influenzae): > 64 µg/mL | MIC (Moraxella catarrhalis): > 64 µg/mL | MIC (Staphylococcus aureus [1]): > 64 µg/mL | MIC (Streptococcus pneumoniae): > 64 µg/mL | MIC [2]: > 64 µg/mL

CC(=O)NC[C@H]1CN(c2ccc3c(c2)CCCN(C(=O)Nc2ccccc2)C3)C(=O)O1
MIC (Enterococcus faecalis): 4 µg/mL (≈ 9.47 µM) | MIC (Haemophilus influenzae): 64 µg/mL (≈ 151 µM) | MIC (Staphylococcus aureus [1]): 16 µg/mL (≈ 37.9 µM) | MIC (Streptococcus pneumoniae): 1 µg/mL (≈ 2.37 µM) | MIC [2]: 4 µg/mL (≈ 9.47 µM)

CC(=O)NC[C@H]1CN(c2ccc3c(c2)CCCN(C(=O)Cc2ccccc2)C3)C(=O)O1
MIC (Enterococcus faecalis): 16 µg/mL (≈ 38 µM) | MIC (Haemophilus influenzae): > 64 µg/mL | MIC (Staphylococcus aureus [1]): 32 µg/mL (≈ 75.9 µM) | MIC (Streptococcus pneumoniae): 4 µg/mL (≈ 9.49 µM) | MIC [2]: 8 µg/mL (≈ 19 µM)

CC(=O)NC[C@H]1CN(c2ccc3c(c2)CCN(C=O)CC3)C(=O)O1
MIC (Enterococcus faecalis): 4 µg/mL (≈ 12.1 µM) | MIC (Haemophilus influenzae): > 64 µg/mL | MIC (Moraxella catarrhalis): 8 µg/mL (≈ 24.1 µM) | MIC (Staphylococcus aureus [3]): 2 µg/mL (≈ 6.04 µM) | MIC (Staphylococcus aureus [1]): 4 µg/mL (≈ 12.1 µM) | MIC (Streptococcus pneumoniae): < 0.05 µg/mL | MIC [2]: < 0.05 µg/mL

CC(=O)NC[C@H]1CN(c2ccc3c(c2)CCN(C(=O)Oc2ccccc2)CC3)C(=O)O1
MIC (Enterococcus faecalis): 4 µg/mL (≈ 9.45 µM) | MIC (Haemophilus influenzae): > 64 µg/mL | MIC (Staphylococcus aureus [1]): 4 µg/mL (≈ 9.45 µM) | MIC (Streptococcus pneumoniae): 2 µg/mL (≈ 4.72 µM) | MIC [2]: 2 µg/mL (≈ 4.72 µM)

CC(=O)NC[C@H]1CN(c2ccc3c(c2)CCCN(C(=O)NCCc2ccccc2)C3)C(=O)O1
MIC (Enterococcus faecalis): 32 µg/mL (≈ 71 µM) | MIC (Haemophilus influenzae): > 64 µg/mL | MIC (Staphylococcus aureus [1]): 64 µg/mL (≈ 142 µM) | MIC (Streptococcus pneumoniae): 8 µg/mL (≈ 17.8 µM) | MIC [2]: 32 µg/mL (≈ 71 µM)

CC(=O)NC[C@H]1CN(c2ccc(N3CCOCC3)c(F)c2)C(=O)O1 [LINEZOLID]
MIC (Haemophilus influenzae): 16 µg/mL (≈ 47.4 µM) | MIC (Moraxella catarrhalis): 8 µg/mL (≈ 23.7 µM) | ED50 (Mus musculus): 5.6 mg/kg/day | MIC [2]: 1 µg/mL (≈ 2.96 µM)
